Measured values as given in ChEMBL document CHEMBL1155697, “Chapecoderins A-C, new labdane-derived diterpenoids from Echinodorus macrophyllus” (J Nat Prod, 2000).
≈ marks a conversion by molar mass, not a printed value.

Tested on: L1210
Test: Cytotoxicity against mouse L1210 cells
Format: functional, cell-based

SMILES | IC50
CC(=O)CC[C@H]1C(C)(C)CCC[C@]1(C)C(=O)CCC1=CCOC1=O [CHAPECODERIN A] | > 10 µg/mL
CC(=O)[C@@H]1C[C@H]2C(C)(C)CCC[C@]2(C)[C@@]1(O)CCC1=CCOC1=O [CHAPECODERIN B] | 7.2 µg/mL (≈ 21.5 µM)
CC(=O)C1=C(CCC2=CCOC2=O)[C@@]2(C)CCCC(C)(C)[C@@H]2C1 [CHAPECODERIN C] | 6 µg/mL (≈ 19 µM)
